≈ marks a conversion by molar mass, not a printed value. Like-named read-outs stand apart in the source and are kept apart here.
Assays:
T98G cells = experiment: MTT cytotoxicity assay, glioblastoma T98G; format: cell-based, human; conditions: MTT assay after 24 h of incubation, read-out: IC50 ± SD, T98G
Method: (§1) Samples of complexes (about 20 mg) were digested in a concentrated mixture of 36% HCl (1 mL) and 65% HNO3 (6 mL). The contents of Cd (II) in the solid complexes were determined with an F-AAS spectrometer (Analytik Jena, contraAA 300, Jena, Germany) with a continuous source of light and using an air/acetylene flame (Analytik Jena, contraAA 300). Absorbances were measured at the analytical spectral lines at 228.8 nm for Cd (II). The limit of quantification was 0.004 mg/L for Cd (II). The solid samples were decomposed using an Anton Paar Multiwave 3000 (Graz, Austria) closed-system instrument. Mineralization was carried out for 45 min at 240 °C under a pressure of 60 bar. The contents of carbon, hydrogen, and nitrogen were determined with an instrument from Vario Micro Company Elementar Analysensysteme GmbH (Langenselbold, Germany). FTIR spectra were recorded with an IR Tracer-100 Schimadzu Spectrometer (4000–600 cm^−1 with an accuracy of recording of 1 cm^−1, Kyoto, Japan) using KBr pellets. The thermal analyses were carried out with a Netzsch STA 449 F1 Jupiter thermoanalyzer (Netzsch-Geratebau GmbH, Selb, Germany) coupled with a Netzsch Aeolos Quadro QMS 403 mass spectrometer (Netzsch-Geratebau GmbH, Selb, Germany). The samples were heated up to 1000 °C in corundum crucibles with a heating rate of 10 °C/min in an atmosphere of synthetic air (20% O2, 80% N2). The cytotoxic effects of the compounds were evaluated using glioblastoma (T98G), neuroblastoma (SK-N-AS), and lung adenocarcinoma (A549) cell lines and normal human skin fibroblasts (CCD-1059Sk). T98G and SK-N-AS cells were cultured in high-glucose DMEM and A549 cells were cultured in DMEM/F12, while CCD-1059Sk cells were cultured in MEM. All media were supplemented with 10% (FBS), 100 U/mL of penicillin, and […] of streptomycin (PenStrep). Cells were incubated at 37 °C in a humidified atmosphere of 5% CO2. Stock solutions were prepared by dissolving the compounds in sterile dimethyl sulfoxide (DMSO) to obtain a concentration of 50 mg/mL. The cells were seeded into sterile 96-well plates (Nunc) at a density of 1 × 10^5 cells/mL. After 24 h of incubation, the medium was removed from each well, and then the cells were incubated for the next 24 h with different concentrations of the tested compounds (1–100 µg/mL) in their respective media containing 2% FBS. The cytotoxicity of the compounds was evaluated using an MTT assay, which was based on the conversion of 3-(4,5-dimethylthiazol-2-yl)-2,5-diphenyltetrazolium bromide (MTT) into dark-blue formazan crystals. Briefly, after 24 h of incubation of the cells with varying concentrations of the tested compounds, all culture media were removed from the plates. The cells were washed with PBS, and then 100 µL of medium containing 10% MTT solution (5 mg/mL) was added to each well. After 3 h of incubation, 100 µL (per well) of 10% SDS buffer solution was added to solubilize the formazan crystals. After overnight incubation, the absorbance was measured at 570 nm using a microplate reader (Epoch, BioTek Instruments). Experiments were repeated twice, and the measurements in each experiment were run in triplicate. The viability of the investigated cells was expressed as the percentage of the viability of the untreated cells, and the results were transformed into IC50 values (expressed as mean ± SD). The complexes were screened for antibacterial and antifungal activity by using the micro-dilution broth method with Mueller–Hinton broth for the growth of bacteria or Mueller–Hinton broth with 2% glucose for the growth of fungi. […]

SK-N-AS cells = experiment: MTT cytotoxicity assay, neuroblastoma SK-N-AS; format: cell-based, human; conditions: MTT assay after 24 h of incubation, read-out: IC50 ± SD, SK-N-AS
Method: as §1

A549 cells = experiment: MTT cytotoxicity assay, lung adenocarcinoma A549; format: cell-based, human; conditions: lung carcinoma A549, MTT assay after 24 h of incubation, read-out: IC50 ± SD, A549
Method: as §1

CCD-1059Sk cells = experiment: MTT cytotoxicity assay, normal human skin fibroblasts CCD-1059Sk; format: cell-based; conditions: normal human fibroblasts CCD-1059Sk, MTT assay after 24 h of incubation; read-out: IC50 ± SD, CCD-1059-Sk
Method: as §1

S. aureus ATCC 25923 = experiment: MIC, micro-dilution broth method; format: cell-based, Staphylococcus aureus; conditions: Gram-positive bacteria, micro-dilution broth
Method: as §1

[1] = tested on: S. epidermidis ATCC 12228; experiment: MIC, micro-dilution broth method; format: cell-based, Staphylococcus epidermidis; conditions: Gram-positive bacteria, micro-dilution broth
Method: as §1

M. luteus ATCC 10240 = experiment: MIC, micro-dilution broth method; format: cell-based, Micrococcus luteus; conditions: Gram-positive bacteria, micro-dilution broth
Method: as §1

E. faecalis ATCC 29212 = experiment: MIC, micro-dilution broth method; format: cell-based, Enterococcus faecalis; conditions: Gram-positive bacteria, micro-dilution broth
Method: as §1

B. subtilis ATCC 6633 = experiment: MIC, micro-dilution broth method; format: cell-based, Bacillus subtilis; conditions: Gram-positive bacteria, micro-dilution broth
Method: as §1

B. cereus ATCC 10876 = experiment: MIC, micro-dilution broth method; format: cell-based, Bacillus cereus; conditions: Gram-positive bacteria, micro-dilution broth
Method: as §1

[2] = tested on: S. typhimurium ATCC 14028; experiment: MIC, micro-dilution broth method; format: cell-based, Salmonella Typhimurium; conditions: Gram-negative bacteria
Method: as §1

E. coli ATCC 25922 = experiment: MIC, micro-dilution broth method; format: cell-based, Escherichia coli; conditions: for MIC, E. coli ATCC 25922: Gram-negative bacteria
Method: as §1

P. mirabilis ATCC 12453 = experiment: MIC, micro-dilution broth method; format: cell-based, Proteus mirabilis; conditions: for MIC, P. mirabilis ATCC 12453: Gram-negative bacteria
Method: as §1

K. pneumoniae ATCC 13883 = experiment: MIC, micro-dilution broth method; format: cell-based, Klebsiella pneumoniae; conditions: for MIC, K. pneumoniae ATCC 13883: Gram-negative bacteria
Method: as §1

P. aeruginosa ATCC 9027 = experiment: MIC, micro-dilution broth method; format: cell-based, Pseudomonas aeruginosa; conditions: for MIC, P. aeruginosa ATCC 9027: Gram-negative bacteria
Method: as §1

C. glabrata ATCC 2091 = experiment: MIC, micro-dilution broth method; format: cell-based; conditions: for MIC, C. glabrata ATCC 2091: Yeasts, micro-dilution broth with 2% glucose
Method: as §1

C. albicans ATCC 102231 = experiment: MIC, micro-dilution broth method; format: cell-based, Candida albicans; conditions: for MIC, C. albicans ATCC 102231: Yeasts, micro-dilution broth with 2% glucose
Method: as §1

[3] = tested on: C. parapsilosis ATCC 22019; experiment: MIC, micro-dilution broth method; format: cell-based, Candida parapsilosis; conditions: Yeasts, micro-dilution broth with 2% glucose
Method: as §1

[4] = Solubility in culture medium (MTT assay); format: physicochemical; conditions: culture medium of the MTT assay
Method: Samples of complexes (about 20 mg) were digested in a concentrated mixture of 36% HCl (1 mL) and 65% HNO3 (6 mL). The contents of Cd (II) in the solid complexes were determined with an F-AAS spectrometer (Analytik Jena, contraAA 300, Jena, Germany) with a continuous source of light and using an air/acetylene flame (Analytik Jena, contraAA 300). Absorbances were measured at the analytical spectral lines at 228.8 nm for Cd (II). The limit of quantification was 0.004 mg/L for Cd (II). The solid samples were decomposed using an Anton Paar Multiwave 3000 (Graz, Austria) closed-system instrument. Mineralization was carried out for 45 min at 240 °C under a pressure of 60 bar. The contents of carbon, hydrogen, and nitrogen were determined with an instrument from Vario Micro Company Elementar Analysensysteme GmbH (Langenselbold, Germany). FTIR spectra were recorded with an IR Tracer-100 Schimadzu Spectrometer (4000–600 cm^−1 with an accuracy of recording of 1 cm^−1, Kyoto, Japan) using KBr pellets. […] The cytotoxic effects of the compounds were evaluated using glioblastoma (T98G), neuroblastoma (SK-N-AS), and lung adenocarcinoma (A549) cell lines and normal human skin fibroblasts (CCD-1059Sk). […] The cytotoxicity of the compounds was evaluated using an MTT assay, which was based on the conversion of 3-(4,5-dimethylthiazol-2-yl)-2,5-diphenyltetrazolium bromide (MTT) into dark-blue formazan crystals. […]

Structure (SMILES)	IC50 (CCD-1059Sk cells) [µM]	MIC, S. aureus ATCC 25923 (S. aureus ATCC 25923) [µg/mL]	MIC, S. epidermidis ATCC 12228 [1] [µg/mL]	MIC, M. luteus ATCC 10240 (M. luteus ATCC 10240) [µg/mL]	MIC, E. faecalis ATCC 29212 (E. faecalis ATCC 29212) [µg/mL]	MIC, B. subtilis ATCC 6633 (B. subtilis ATCC 6633) [µg/mL]	MIC, B. cereus ATCC 10876 (B. cereus ATCC 10876) [µg/mL]	MIC, S. typhimurium ATCC 14028 [2] [µg/mL]	MIC, E. coli ATCC 25922 (E. coli ATCC 25922) [µg/mL]	MIC, P. mirabilis ATCC 12453 (P. mirabilis ATCC 12453) [µg/mL]	MIC, K. pneumoniae ATCC 13883 (K. pneumoniae ATCC 13883) [µg/mL]	MIC, P. aeruginosa ATCC 9027 (P. aeruginosa ATCC 9027) [µg/mL]	MIC, C. glabrata ATCC 2091 (C. glabrata ATCC 2091) [µg/mL]	MIC, C. albicans ATCC 102231 (C. albicans ATCC 102231) [µg/mL]	MIC, C. parapsilosis ATCC 22019 [3] [µg/mL]	also measured
O.[Cl][Cd][Cl].c1cnc2[nH]c(-c3ccncc3)nc2c1 [C2, Cd(L2)Cl2∙H2O]	44.07 ± 0.33	1000	500	7.8	125	0.98	500	>1000	1000	>1000	>1000	>1000	31.3	125	7.8	IC50 (T98G cells): 65.25 ± 0.63 µM; IC50 (SK-N-AS cells): 22.5 µM; IC50 (A549 cells): 34.1 ± 0.55 µM
O.[Cl][Cd][Cl].c1cc(-c2nc3ccncc3[nH]2)ccn1 [C1, Cd(L1)Cl2∙H2O]	–	500	250	7.8	125	7.8	500	1000	1000	1000	1000	>1000	62.5	500	15.6	solubility in culture medium [4]: Not determined due to low solubility in culture medium
c1cc(-c2nc3ccncc3[nH]2)ccn1 [L1]	> 509	–	–	–	–	–	–	–	–	–	–	–	–	–	–	IC50 (T98G cells; Homo sapiens): 210 ± 12 µM; IC50 (SK-N-AS cells; Homo sapiens, SK-N-AS, 24 h): > 509 µM; IC50 (A549 cells; Homo sapiens): > 509 µM; MIC (S. aureus ATCC 25923; Staphylococcus aureus, ATCC25923, read-out: MIC, S. aureus ATCC 25923): > 1000 µg/mL; MIC ([1]; Staphylococcus epidermidis, ATCC12228, read-out: MIC, S. epidermidis ATCC 12228): > 1000 µg/mL; MIC (M. luteus ATCC 10240; Micrococcus luteus, ATCC10240, read-out: MIC, M. luteus ATCC 10240): 500 µg/mL (≈ 2.55 mM); MIC (E. faecalis ATCC 29212; Enterococcus faecalis, ATCC29212, read-out: MIC, E. faecalis ATCC 29212): > 1000 µg/mL; MIC (B. subtilis ATCC 6633; Bacillus subtilis, ATCC6633, read-out: MIC, B. subtilis ATCC 6633): > 1000 µg/mL; MIC (B. cereus ATCC 10876; Bacillus cereus, ATCC10876, read-out: MIC, B. cereus ATCC 10876): > 1000 µg/mL; MIC ([2]; Salmonella enterica): > 1000 µg/mL; MIC (E. coli ATCC 25922; Escherichia coli, ATCC25922, Gram-negative bacteria): > 1000 µg/mL; MIC (P. mirabilis ATCC 12453; Proteus mirabilis, ATCC12453, Gram-negative bacteria): > 1000 µg/mL; MIC (K. pneumoniae ATCC 13883; Klebsiella pneumoniae, ATCC13883, Gram-negative bacteria): > 1000 µg/mL; MIC (P. aeruginosa ATCC 9027; Pseudomonas aeruginosa, ATCC9027, Gram-negative bacteria): > 1000 µg/mL; MIC (C. glabrata ATCC 2091; Nakaseomyces glabratus, ATCC2091, read-out: MIC, C. glabrata ATCC 2091): > 1000 µg/mL; MIC (C. albicans ATCC 102231; Candida albicans, ATCC102231, read-out: MIC, C. albicans ATCC 102231): > 1000 µg/mL; MIC ([3]; Lodderomyces parapsilosis, ATCC22019): > 1000 µg/mL

From publication PMC9412362, “Design, Synthesis, and Characterization of Novel Coordination Compounds of Benzimidazole Derivatives with Cadmium” (Pharmaceutics, 2022)
